Source: ChEMBL document CHEMBL1135763, “Discovery of aminothiazole inhibitors of cyclin-dependent kinase 2: synthesis, X-ray crystallographic analysis, and biological activities” (J Med Chem, 2002)

Columns and labels:
[1] = Tmax value at a dose of 10 mg/kg intravenous administration in mice.; type: ADME, organism-based; set-up: dose 10 mg/kg, route intravenous; settings: mouse, in vivo
[2] = Tmax value at a dose of 10 mg/kg peroral administration in mice.; type: ADME, organism-based; set-up: dose 10 mg/kg, route oral; settings: mouse, in vivo, po
Mus musculus [3] = experiment: At a dose 50 mg/kg (114 umol/kg) was administered intraperitoneally to mice and was evaluated for MRT; type: functional, organism-based; set-up: dose 50 mg/kg
[4] = MRT value at a dose of 10 mg/kg intravenous administration in mice.; type: ADME, organism-based; set-up: dose 10 mg/kg, route intravenous; settings: mouse, in vivo
[5] = MRT value at a dose of 10 mg/kg peroral administration in mice.; type: ADME, organism-based; set-up: dose 10 mg/kg, route oral; settings: mouse, in vivo, po
A2780 = experiment: […] antitumor activity against A2780 human ovarian carcinoma at 7.5 mg/kg i.p. /qd x7; type: functional; settings: route intraperitoneal
Mus musculus [6] = experiment: AUC total value at a dose of 10 mg/kg intravenous administration in mice.; type: ADME, organism-based, Plasma; set-up: dose 10 mg/kg, route intravenous; settings: in vivo
Mus musculus [7] = experiment: AUC total value at a dose of 10 mg/kg peroral administration in mice.; type: ADME, organism-based, Plasma; set-up: dose 10 mg/kg, route oral; settings: in vivo, po
Mus musculus [8] = experiment: At a dose 50 mg/kg (114 umol/kg) was administered intraperitoneally to mice and was evaluated for area under curve (AUCtot); type: ADME, organism-based; set-up: time AUCmax, dose 50 mg/kg, route intraperitoneal; settings: in vivo, ip
[9] = Vss value at a dose of 10 mg/kg intravenous administration in mice.; type: ADME, organism-based; set-up: dose 10 mg/kg, route intravenous; settings: mouse, in vivo, read-out: Vss
[10] = At a dose 50 mg/kg (114 umol/kg) was administered intraperitoneally to mice and was evaluated for T max; type: ADME, organism-based; set-up: dose 50 mg/kg, route intraperitoneal; settings: mouse, in vivo, ip
[11] = At a dose 50 mg/kg (114 umol/kg) was administered intraperitoneally to mice and was evaluated for half life (T1/2); type: ADME, organism-based; set-up: dose 50 mg/kg, route intraperitoneal; settings: mouse, in vivo, ip
[12] = Half life at a dose of 10 mg/kg intravenous administration in mice.; type: ADME, organism-based; set-up: dose 10 mg/kg, route intravenous; settings: mouse, in vivo
[13] = Half life at a dose of 10 mg/kg peroral administration in mice.; type: ADME, organism-based; set-up: dose 10 mg/kg, route oral; settings: mouse, in vivo, po
[14] = Cmax value at a dose of 10 mg/kg intravenous administration in mice.; type: ADME, organism-based; set-up: dose 10 mg/kg, route intravenous; settings: mouse, in vivo
[15] = Cmax value at a dose of 10 mg/kg peroral administration in mice.; type: ADME, organism-based; set-up: dose 10 mg/kg, route oral; settings: mouse, in vivo, po
[16] = Plasma clearance at a dose of 10 mg/kg intravenous administration in mice.; type: ADME, organism-based; set-up: dose 10 mg/kg, route intravenous; settings: mouse
[17] = At a dose 50 mg/kg (114 umol/kg) was administered intraperitoneally to mice and was evaluated for Cmax; type: ADME, organism-based; set-up: dose 50 mg/kg, route intraperitoneal; settings: mouse, in vivo, ip
[18] = Bioavailability at a dose of 10 mg/kg peroral administration in mice.; type: ADME, organism-based; settings: mouse, in vivo, po, read-out: Bioavailabiility
[19] = target: Cyclin-dependent kinase 4/cyclin D1 (Homo sapiens, UniProt P11802); experiment: Inhibitory activity against baculovirus expressed Cyclin dependent kinase 4-cyclinD1; type: protein-complex assay
[20] = target: Receptor tyrosine-protein kinase erbB-2 (Homo sapiens, UniProt P04626); experiment: Inhibition of HER2 kinase
Homo sapiens [21] = species: Homo sapiens; experiment: Percent of serum binding in human; type: functional
[22] = Inhibition of I kappa-B kinase
[23] = Inhibition of Insulin-like growth factor receptor
Mus musculus [24] = species: Mus musculus; experiment: Metabolic rate in mouse; type: ADME
Mus musculus [25] = species: Mus musculus; experiment: Percent of serum binding in mouse; type: functional
P388 = experiment: […] antitumor activity against P388 murine leukemia at 7.5 mg/kg i.p. /qd x7 and %T/C; type: functional, Mus musculus; settings: route intraperitoneal
[26] = target: Protein kinase C beta type (Homo sapiens, UniProt P05771); experiment: Inhibition of Protein kinase C beta
[27] = target: Protein kinase C delta type (Homo sapiens, UniProt Q05655); experiment: Inhibition of Protein kinase C delta
[28] = target: Protein kinase C alpha type (Homo sapiens, UniProt P17252); experiment: Inhibition of Protein kinase C alpha
[29] = target: Protein kinase C epsilon type (Homo sapiens, UniProt Q02156); experiment: Inhibition of Protein kinase C epsilon
[30] = target: T1, Tyrosine-protein kinase ITK/TSK (Homo sapiens, UniProt Q08881); experiment: Inhibition of tyrosine kinase EMT
T1 sequence (Q08881 whole entry): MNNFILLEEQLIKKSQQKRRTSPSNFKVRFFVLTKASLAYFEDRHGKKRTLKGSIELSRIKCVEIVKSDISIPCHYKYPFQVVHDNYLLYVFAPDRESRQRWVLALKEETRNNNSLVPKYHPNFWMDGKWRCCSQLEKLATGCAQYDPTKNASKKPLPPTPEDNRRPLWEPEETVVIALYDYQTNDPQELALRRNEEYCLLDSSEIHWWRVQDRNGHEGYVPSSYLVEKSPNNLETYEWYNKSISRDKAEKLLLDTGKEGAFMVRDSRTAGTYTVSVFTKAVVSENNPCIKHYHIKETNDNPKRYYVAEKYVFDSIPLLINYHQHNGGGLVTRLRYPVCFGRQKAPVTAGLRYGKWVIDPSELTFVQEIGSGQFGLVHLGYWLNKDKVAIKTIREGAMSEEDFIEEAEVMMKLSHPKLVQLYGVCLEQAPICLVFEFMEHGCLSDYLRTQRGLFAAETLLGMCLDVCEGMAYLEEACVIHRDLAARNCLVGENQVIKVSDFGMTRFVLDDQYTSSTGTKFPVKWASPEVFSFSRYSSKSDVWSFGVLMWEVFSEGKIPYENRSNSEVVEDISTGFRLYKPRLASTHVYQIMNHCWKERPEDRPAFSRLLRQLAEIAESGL

[31] = target: Tyrosine-protein kinase ZAP-70 (Homo sapiens, UniProt P43403); experiment: Inhibition of Zeta-chain (TCR) associated protein kinase 70 kDa (ZAP70)
Homo sapiens [32] = species: Homo sapiens; experiment: Metabolic rate in human; type: ADME
[33] = target: Protein kinase C zeta (Homo sapiens) (UniProt Q05513); experiment: Inhibition of Protein kinase C zeta
Protein kinase C zeta (Homo sapiens), sequence (Q05513 whole entry, looked up): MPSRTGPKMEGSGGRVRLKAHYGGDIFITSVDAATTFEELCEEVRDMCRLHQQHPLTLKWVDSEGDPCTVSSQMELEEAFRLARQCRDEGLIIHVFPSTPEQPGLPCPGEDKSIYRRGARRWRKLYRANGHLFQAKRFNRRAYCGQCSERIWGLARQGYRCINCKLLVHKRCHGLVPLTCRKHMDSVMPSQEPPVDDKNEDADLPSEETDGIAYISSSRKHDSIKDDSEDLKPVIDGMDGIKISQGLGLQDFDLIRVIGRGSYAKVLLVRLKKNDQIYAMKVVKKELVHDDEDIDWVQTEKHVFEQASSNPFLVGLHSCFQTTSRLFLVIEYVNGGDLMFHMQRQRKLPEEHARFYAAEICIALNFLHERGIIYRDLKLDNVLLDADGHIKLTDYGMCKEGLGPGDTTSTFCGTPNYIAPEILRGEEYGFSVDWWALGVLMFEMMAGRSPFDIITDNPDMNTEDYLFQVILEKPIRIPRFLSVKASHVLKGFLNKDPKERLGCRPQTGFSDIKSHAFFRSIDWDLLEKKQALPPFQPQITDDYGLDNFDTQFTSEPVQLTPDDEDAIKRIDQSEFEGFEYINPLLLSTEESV

Tyrosine-protein kinase ZAP-70, sequence (P43403 whole entry): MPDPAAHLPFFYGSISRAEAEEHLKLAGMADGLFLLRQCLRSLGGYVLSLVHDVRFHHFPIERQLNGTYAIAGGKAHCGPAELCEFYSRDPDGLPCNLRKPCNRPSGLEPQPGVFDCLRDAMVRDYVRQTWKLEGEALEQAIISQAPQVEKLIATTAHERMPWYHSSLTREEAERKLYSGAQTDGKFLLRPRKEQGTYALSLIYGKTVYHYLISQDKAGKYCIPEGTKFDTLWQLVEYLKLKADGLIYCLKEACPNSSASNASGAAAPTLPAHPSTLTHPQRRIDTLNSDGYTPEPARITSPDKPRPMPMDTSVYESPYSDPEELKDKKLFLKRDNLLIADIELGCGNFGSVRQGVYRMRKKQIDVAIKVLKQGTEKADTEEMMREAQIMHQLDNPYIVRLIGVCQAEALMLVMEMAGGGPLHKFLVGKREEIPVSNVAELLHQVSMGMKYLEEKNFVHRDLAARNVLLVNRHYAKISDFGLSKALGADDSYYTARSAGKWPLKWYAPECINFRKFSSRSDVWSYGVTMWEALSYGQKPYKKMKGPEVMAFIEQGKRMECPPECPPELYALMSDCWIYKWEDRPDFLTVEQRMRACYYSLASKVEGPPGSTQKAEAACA
Protein kinase C delta type, sequence (Q05655 whole entry): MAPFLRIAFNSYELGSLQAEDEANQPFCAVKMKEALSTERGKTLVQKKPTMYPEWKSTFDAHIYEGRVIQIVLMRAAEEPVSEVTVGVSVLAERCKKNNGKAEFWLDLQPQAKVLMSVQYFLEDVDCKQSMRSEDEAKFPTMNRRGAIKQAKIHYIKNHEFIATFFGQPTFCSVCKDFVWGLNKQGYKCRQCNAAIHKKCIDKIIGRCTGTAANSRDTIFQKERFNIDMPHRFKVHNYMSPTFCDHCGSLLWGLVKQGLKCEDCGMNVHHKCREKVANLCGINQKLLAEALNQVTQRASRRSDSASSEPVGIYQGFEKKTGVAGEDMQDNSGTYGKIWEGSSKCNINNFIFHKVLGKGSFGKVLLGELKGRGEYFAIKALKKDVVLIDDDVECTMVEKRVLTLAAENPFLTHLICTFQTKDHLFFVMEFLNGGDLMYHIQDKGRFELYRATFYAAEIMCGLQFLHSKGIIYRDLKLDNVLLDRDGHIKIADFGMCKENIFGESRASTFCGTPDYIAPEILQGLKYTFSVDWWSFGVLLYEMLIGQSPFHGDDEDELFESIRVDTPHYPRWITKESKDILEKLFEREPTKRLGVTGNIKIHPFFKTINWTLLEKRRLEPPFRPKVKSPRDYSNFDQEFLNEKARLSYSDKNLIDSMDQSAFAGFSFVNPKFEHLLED
Protein kinase C epsilon type, sequence (Q02156 whole entry): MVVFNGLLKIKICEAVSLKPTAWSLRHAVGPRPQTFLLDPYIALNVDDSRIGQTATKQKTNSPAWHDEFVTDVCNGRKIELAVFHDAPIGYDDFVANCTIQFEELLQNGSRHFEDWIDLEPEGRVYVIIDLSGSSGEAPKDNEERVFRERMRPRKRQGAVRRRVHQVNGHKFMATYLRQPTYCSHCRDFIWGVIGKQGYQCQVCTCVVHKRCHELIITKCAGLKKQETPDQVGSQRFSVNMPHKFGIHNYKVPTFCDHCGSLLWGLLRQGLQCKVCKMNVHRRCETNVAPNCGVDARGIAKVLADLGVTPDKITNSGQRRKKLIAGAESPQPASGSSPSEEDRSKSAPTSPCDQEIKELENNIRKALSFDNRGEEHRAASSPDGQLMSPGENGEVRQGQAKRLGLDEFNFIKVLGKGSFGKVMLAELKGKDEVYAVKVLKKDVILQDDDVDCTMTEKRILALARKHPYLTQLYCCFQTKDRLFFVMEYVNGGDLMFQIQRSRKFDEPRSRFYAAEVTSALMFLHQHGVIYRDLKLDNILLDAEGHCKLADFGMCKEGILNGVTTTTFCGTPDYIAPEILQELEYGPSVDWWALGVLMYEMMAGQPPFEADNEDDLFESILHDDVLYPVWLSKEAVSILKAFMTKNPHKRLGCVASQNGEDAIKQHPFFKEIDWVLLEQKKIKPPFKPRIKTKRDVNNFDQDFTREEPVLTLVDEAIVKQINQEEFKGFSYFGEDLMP
Cyclin-dependent kinase 4/cyclin D1, sequence (P11802 whole entry): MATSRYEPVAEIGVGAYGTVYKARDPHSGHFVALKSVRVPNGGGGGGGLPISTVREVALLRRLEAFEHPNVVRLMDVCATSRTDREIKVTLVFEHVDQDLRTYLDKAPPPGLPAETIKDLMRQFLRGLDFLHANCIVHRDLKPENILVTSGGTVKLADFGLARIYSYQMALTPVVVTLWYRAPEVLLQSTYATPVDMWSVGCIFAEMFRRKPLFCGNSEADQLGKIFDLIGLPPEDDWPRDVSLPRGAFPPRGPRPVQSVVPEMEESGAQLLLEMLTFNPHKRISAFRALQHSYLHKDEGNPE
Cyclin-dependent kinase 4/cyclin D1, sequence (P24385 whole entry, further chain): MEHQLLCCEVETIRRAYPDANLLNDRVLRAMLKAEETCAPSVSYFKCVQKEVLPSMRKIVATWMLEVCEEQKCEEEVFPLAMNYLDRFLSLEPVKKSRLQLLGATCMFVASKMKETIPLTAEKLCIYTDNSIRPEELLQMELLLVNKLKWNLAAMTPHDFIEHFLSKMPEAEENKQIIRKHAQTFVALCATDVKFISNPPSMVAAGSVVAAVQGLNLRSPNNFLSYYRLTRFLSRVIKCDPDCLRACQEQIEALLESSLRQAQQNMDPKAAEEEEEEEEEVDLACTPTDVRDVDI
Protein kinase C beta type, sequence (P05771 whole entry): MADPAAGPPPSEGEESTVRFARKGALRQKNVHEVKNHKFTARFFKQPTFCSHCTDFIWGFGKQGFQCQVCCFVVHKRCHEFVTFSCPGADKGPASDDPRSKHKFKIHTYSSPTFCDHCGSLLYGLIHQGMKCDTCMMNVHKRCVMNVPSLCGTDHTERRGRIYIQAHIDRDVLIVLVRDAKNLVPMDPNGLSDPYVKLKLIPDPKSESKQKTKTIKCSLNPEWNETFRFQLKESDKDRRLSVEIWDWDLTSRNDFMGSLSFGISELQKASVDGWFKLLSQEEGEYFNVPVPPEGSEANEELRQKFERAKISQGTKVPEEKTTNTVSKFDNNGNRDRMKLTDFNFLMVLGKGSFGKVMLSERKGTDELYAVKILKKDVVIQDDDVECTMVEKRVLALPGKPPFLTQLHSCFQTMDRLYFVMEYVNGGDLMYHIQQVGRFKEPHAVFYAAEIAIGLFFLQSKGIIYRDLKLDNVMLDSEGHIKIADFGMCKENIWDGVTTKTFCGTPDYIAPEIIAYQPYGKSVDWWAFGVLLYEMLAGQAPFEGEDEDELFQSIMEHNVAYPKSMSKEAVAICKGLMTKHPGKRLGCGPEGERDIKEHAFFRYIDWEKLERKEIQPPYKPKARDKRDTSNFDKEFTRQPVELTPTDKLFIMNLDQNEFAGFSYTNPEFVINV

CC(C)(C)c1cnc(CSc2cnc(NC(=O)Cc3ccc(CNC(CO)CO)cc3)s2)o1
Tmax [1]: 4.8 min | Tmax [2]: 0.33 h | MRT (Mus musculus [3]): 2.9 h | MRT [4]: 1.8 h | MRT [5]: 4.1 h | LCK (A2780): 3.3 | AUC total (Mus musculus [6]): 4.98 µM·h | AUC total (Mus musculus [7]): 1.2 µM·h | AUC total (Mus musculus [8]): 2.7 µM·h | Vd [9]: 6.9 L/kg | Tmax [10]: 1 h | half-life [11]: 1.8 h | half-life [12]: 2.2 h | half-life [13]: 1.4 h | Cmax [14]: 8270 nM | Cmax [15]: 635 nM | clearance [16]: 67 mL/min/kg | Cmax [17]: 800 nM | bioavailability [18]: 24% | IC50 [19]: 0.1 µM | IC50 [20]: > 25 µM | Activity (Homo sapiens [21]): 78% | IC50 [22]: 28 µM | IC50 [23]: 24 µM | Rate (Mus musculus [24]): 0.22 nM min-1 (mg of protein)-1 | Activity (Mus musculus [25]): 79% | T/C (P388): 140% | IC50 [26]: > 45 µM | IC50 [27]: 45 µM | IC50 [28]: > 45 µM | IC50 [29]: 5.6 µM | IC50 [30]: 29 µM | IC50 [31]: > 50 µM | Rate (Homo sapiens [32]): 0.21 nM min-1 (mg of protein)-1 | IC50 [33]: 35 µM
